{
  "source": "patent US11000512B2",
  "about": "“Use of DDX3 inhibitors as antiproliferative agents” (AZIENDA OSPEDALIERA UNIVERSITARIA SENESE, priority 2016, dated 2021)",
  "key": {"[1]": {"test_system": "Human breast adenocarcinoma cell line (MDA-MB-231)", "test": "Cytotoxicity test / growth inhibition, MDA-MB-231", "type": "cell-based", "conditions": "MDA-MB-231, 48 hours, cell counting", "protocol": "(§1) Cells were purchased from American Type Culture Collection (ATCC, Manassas, Va., USA). The LNCaP (ATCC® CRL-1740™), A549 (ATCC® CCL-185™), MDA-MB-231 (ATCC® CRM-HTB-26™), 22Rv1 (ATCC® CRL-2505™), HCT-116 (ATCC® CCL-247™) and PC3 (ATCC® CRL-1435™) cells were maintained in Roswell Park Memorial Institute 1640 medium (RPMI; Euroclone, ECB9006L) supplemented with 10% fetal bovine serum (Euroclone; ECS0180L), 2 mM L-glutamine, 100 units/mL penicillin and […] streptomycin at 37° C. in an atmosphere of 5% CO2/air. DU145 (ATCC® HTB-81™), and DAOY (ATCC® HTB-186™) cells were maintained in Eagle's minimal essential medium (EMEM; Euro-clone, ECM0445L) supplemented with 10% fetal bovine serum (Euroclone; ECS0180L), 2 mM L-glutamine, 100 units/ml penicillin and […] streptomycin at 37° C. in an atmosphere of 5% CO2/air. SH-SY5Y (ATCC® CRL-2266™), DBRTG (ATCC® CRL-2020™), HeLa (ATCC® CCL-2™), HN6 cells (kindly provided by Dr Silvio Gutkind, UCSD Medical Center, Moores Cancer Center USA, Chen J. J et al, Oncotarget 2013, 4, 206-217)), U2OS (ATCC® HTB-96™), RD18 cells (kindly provided by Dr P. Boccuni Memorial Sloan-Kettering Cancer Center, New York, USA Vella S. et al. Clin Epigenetics. 2015 6; 7-82), cells were maintained in Dulbecco's modified Eagle's medium (DMEM; Euroclone, ECB7501L) supplemented with 10% fetal bovine serum (Euroclone; ECS0180L), 2 mM L-glutamine, 100 units/ml penicillin and 100 mg/mL streptomycin at 37° C. in an atmosphere of 5% CO2/air.\n(§2) Cell lines were seeded at appropriate densities in 2 mL growth medium in 6-wells culture plates 24 hours before the treatment with the inhibitor compounds. After 24 h the culture medium was removed and fresh medium containing increasing concentrations of chemical compounds was added to cells. The fixed final concentrations were: 0.1 μM, 1 μM, 10 μM, 100 μM. DMSO was the vehicle used for dilution of the compounds and its final concentration on cells was less than 0.2%. Medium-only containing wells were included as controls. Cells were incubated 48 hours with drugs and, then, cell viability was evaluated.\n(§3) Cells were detached from each well of the 6-wells plates with 300 μL of Trypsin and suspended in culture medium to a final volume of 1 mL. Cell viability was then assessed through cell counting. Cells were diluted in 1:50 ratio of an isotonic buffered diluent, Isoton (Backman Coulter), following the manufacturer's instructions, and counted using an automated cell counter (Z2 series Coulter Counter, Beckman Coulter). Each cell count was performed in three replicates. The values corresponding to the relative survival of cells in presence of each chemical compound at single concentrations were normalized to the untreated controls. Then, the half maximal inhibitory concentration (IC50) value, which represent the drug concentration that is required to induce a 50% growth inhibition in vitro, was calculated with GraphPad Prism 6.0 software using the best fitting sigmoid curve."}, "[2]": {"test_system": "Human head and neck squamous carcinoma cell line (HN6)", "test": "Cytotoxicity test / growth inhibition, HN6", "type": "cell-based", "conditions": "HN6, 48 hours, cell counting", "protocol": "as §1, §2, §3"}, "[3]": {"test_system": "Human colorectal carcinoma cell line (HCT116)", "test": "Cytotoxicity test / growth inhibition, HCT116", "type": "cell-based", "conditions": "HCT-116, HCT116, 48 hours, cell counting", "protocol": "as §1, with “2015 6; 7-82), cells were maintained in Dulbecco's modified Eagle's medium (DMEM; Euroclone, ECB7501L) supplemented with 10% fetal bovine serum (Euroclone; ECS0180L), 2 mM L-glutamine, 100 units/ml penicillin and 100 mg/mL streptomycin at 37° C. in an atmosphere of 5% CO2/air.” left out\n(§4) Cell lines were seeded at appropriate densities in 2 mL growth medium in 6-wells culture plates 24 hours before the treatment with the inhibitor compounds. […] Cells were incubated 48 hours with drugs and, then, cell viability was evaluated.\n(§5) Cells were detached from each well of the 6-wells plates with 300 μL of Trypsin and suspended in culture medium to a final volume of 1 mL. Cell viability was then assessed through cell counting. Cells were diluted in 1:50 ratio of an isotonic buffered diluent, Isoton (Backman Coulter), following the manufacturer's instructions, and counted using an automated cell counter (Z2 series Coulter Counter, Beckman Coulter). […]"}, "[4]": {"test_system": "Human adenocarcinomic alveolar basal epithelial cell line (A549)", "test": "Cytotoxicity test / growth inhibition, A549", "type": "cell-based", "conditions": "A549, 48 hours, cell counting", "protocol": "as §1, §2, §3"}, "[5]": {"test_system": "Human Prostate cancer cell line (PC3)", "test": "Cytotoxicity test / growth inhibition, PC3", "type": "cell-based", "conditions": "PC3, 48 hours, cell counting", "protocol": "as §1, with “2015 6; 7-82), cells were maintained in Dulbecco's modified Eagle's medium (DMEM; Euroclone, ECB7501L) supplemented with 10% fetal bovine serum (Euroclone; ECS0180L), 2 mM L-glutamine, 100 units/ml penicillin and 100 mg/mL streptomycin at 37° C. in an atmosphere of 5% CO2/air.” left out\nas §4, §5"}, "[6]": {"test_system": "Human Prostate cell line derived from brain metastasis (DU-145)", "test": "Cytotoxicity test / growth inhibition, DU-145", "type": "cell-based", "conditions": "DU-145, 48 hours, cell counting", "protocol": "as §1, §2\nas §5, with “Coulter). Each cell count was performed in three replicates. The values corresponding to the relative survival of cells in presence of each chemical compound at single concentrations were normalized to the untreated controls.” for “Coulter).”"}, "[7]": {"target": "T1, Human recombinant DDX3 (DDX3 wt helicase) (Homo sapiens, UniProt O00571)", "T1 construct": "made in house", "T1 sequence (O00571 whole entry)": "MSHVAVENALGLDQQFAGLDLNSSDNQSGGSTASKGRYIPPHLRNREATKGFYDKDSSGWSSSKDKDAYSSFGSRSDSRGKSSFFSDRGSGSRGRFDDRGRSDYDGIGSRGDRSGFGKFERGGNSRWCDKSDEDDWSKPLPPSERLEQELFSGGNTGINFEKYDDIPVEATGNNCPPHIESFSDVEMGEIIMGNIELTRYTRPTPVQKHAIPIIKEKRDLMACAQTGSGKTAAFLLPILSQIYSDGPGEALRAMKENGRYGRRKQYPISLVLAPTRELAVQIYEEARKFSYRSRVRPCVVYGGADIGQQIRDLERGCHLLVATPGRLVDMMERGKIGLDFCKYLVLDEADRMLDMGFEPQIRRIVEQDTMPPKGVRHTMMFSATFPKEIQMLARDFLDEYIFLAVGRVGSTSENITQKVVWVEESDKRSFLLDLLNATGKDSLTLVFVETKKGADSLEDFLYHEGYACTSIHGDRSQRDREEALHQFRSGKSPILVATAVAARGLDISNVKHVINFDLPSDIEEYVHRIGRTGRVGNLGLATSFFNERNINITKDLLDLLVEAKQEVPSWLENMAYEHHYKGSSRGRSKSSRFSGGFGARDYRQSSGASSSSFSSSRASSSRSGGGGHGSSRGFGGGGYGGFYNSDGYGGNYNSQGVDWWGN", "test": "Helicase assay (anti-enzymatic activity against the DDX3 helicase)", "type": "biochemical", "conditions": "DDX3 helicase activity, dsRNA unwinding; n.a = Compound not active; read-out: ID50 (the source's name)", "protocol": "The helicase activity of DDX3 wt was monitored by measuring the conversion of a double stranded (ds) RNA (labelled at the 5′-end of one strand with a 6-FAM fluorescent) into single stranded (ss) nucleic acid. A final concentration of 25 nM RNA substrate was used in the experiments, unless otherwise stated. Reactions were performed in 50 mM TrisHCl pH 7.5, 1 mM DTT, 0.2 mg/ml BSA, 5% glycerol and 100 μM ATP, 10 mM MgCl2 at 37° C. degrees for 10′ and stopped by adding EDTA 50 mM pH 8. Products were separated through non-denaturating 8% PAGE at 5 W for 4 hours in TBE buffer at 4° C. Substrates and products were quantified by laser scanning densitometry (Thyphoon-TRIO, GE Healthcare).\nHuman recombinant DDX3 was cloned, expressed and purified as described (Franca et al. Proteins 2007, 67, 1128-37)."}, "HIV": {"test_system": "HIV", "conditions": "viral load of PBMCs infected with HIV; cited from earlier work"}, "ATPase activity of DDX3": {"target": "ATPase activity of DDX3 (Homo sapiens, UniProt O00571)", "sequence (O00571 whole entry)": "as above", "conditions": "Maga et al. 2008; cited from earlier work"}, "HIV-1 (IIIB)": {"test_system": "HIV-1 (IIIB)", "conditions": "HIV-1 (IIIB) in MT4-cells; cited from earlier work"}, "MOLT-4 T-lymphocytic": {"test_system": "MOLT-4 T-lymphocytic", "conditions": "cited from earlier work"}},
  "data": [
    {"compound": "CCCCc1nnc(-c2ccc(NC(=O)Nc3ccccc3C(F)(F)F)cc2)o1", "note": "[Compound 112, 1-(4-(5-butyl-1,3,4-oxadiazol-2-yl)phenyl)-3-(2-(trifluoromethyl)phenyl)urea]", "values": [
      {"measurement": "IC50", "setting": "[1]", "value": 33.6, "unit": "µM"},
      {"measurement": "IC50", "setting": "[2]", "value": 75.7, "unit": "µM"},
      {"measurement": "IC50", "setting": "[3]", "value": 38.2, "unit": "µM"},
      {"measurement": "IC50", "setting": "[4]", "value": 57.1, "unit": "µM"}
    ]},
    {"compound": "CCCCc1nnc(-c2ccc(NC(=O)Nc3ccccc3C(F)(F)F)cc2)[nH]1", "note": "[Compound 119, 1-(4-(5-butyl-4H-1,2,4-triazol-3-yl)phenyl)-3-(2-(trifluoromethyl)phenyl)urea]", "values": [
      {"measurement": "IC50", "setting": "[5]", "value": 46.3, "unit": "µM"},
      {"measurement": "IC50", "setting": "[6]", "value": 12.9, "unit": "µM"},
      {"measurement": "IC50", "setting": "[4]", "value": 14, "unit": "µM"},
      {"measurement": "IC50", "setting": "[7]", "value": 1, "unit": "µM"}
    ]},
    {"compound": "Cc1ccccc1NC(=O)Nc1cccc([N+](=O)[O-])c1", "note": "[EI01D]", "values": [
      {"measurement": "EC50", "setting": "HIV", "value": 10, "unit": "µM"}
    ]},
    {"compound": "O=C(CN1C(=O)/C(=C/c2cccc(Br)c2)SC1=S)Nc1ccccc1O", "note": "[FE15]", "values": [
      {"measurement": "Ki", "setting": "ATPase activity of DDX3", "value": 5.4, "unit": "µM"},
      {"measurement": "EC50", "setting": "HIV-1 (IIIB)", "value": 86.7, "unit": "µM"},
      {"measurement": "CC50", "setting": "MOLT-4 T-lymphocytic", "value": "> 200", "unit": "µM"}
    ]}
  ]
}
